In general, AC50 refers to the midpoint of the concentration-response curve, whichever way the signal moves.

Assay [1] addresses T1, Muscarinic acetylcholine receptor M1 (Homo sapiens, UniProt P11229).
T1 sequence (P11229 whole entry): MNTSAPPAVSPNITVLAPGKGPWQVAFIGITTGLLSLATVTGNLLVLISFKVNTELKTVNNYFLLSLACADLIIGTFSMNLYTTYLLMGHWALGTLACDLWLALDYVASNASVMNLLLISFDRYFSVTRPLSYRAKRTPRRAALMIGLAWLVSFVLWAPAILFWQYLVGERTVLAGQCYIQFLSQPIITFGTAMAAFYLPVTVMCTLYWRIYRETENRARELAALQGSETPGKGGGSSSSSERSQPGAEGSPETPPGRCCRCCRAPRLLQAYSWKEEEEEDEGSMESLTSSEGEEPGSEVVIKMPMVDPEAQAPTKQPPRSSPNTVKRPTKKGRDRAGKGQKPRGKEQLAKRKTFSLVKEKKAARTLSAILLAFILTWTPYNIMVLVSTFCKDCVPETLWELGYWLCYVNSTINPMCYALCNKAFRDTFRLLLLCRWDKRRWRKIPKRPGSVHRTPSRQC
It is filed as functional.

Assay [2] concerns the target T2, Alpha-2A adrenergic receptor (Homo sapiens, UniProt P08913).
T2 sequence (P08913 whole entry): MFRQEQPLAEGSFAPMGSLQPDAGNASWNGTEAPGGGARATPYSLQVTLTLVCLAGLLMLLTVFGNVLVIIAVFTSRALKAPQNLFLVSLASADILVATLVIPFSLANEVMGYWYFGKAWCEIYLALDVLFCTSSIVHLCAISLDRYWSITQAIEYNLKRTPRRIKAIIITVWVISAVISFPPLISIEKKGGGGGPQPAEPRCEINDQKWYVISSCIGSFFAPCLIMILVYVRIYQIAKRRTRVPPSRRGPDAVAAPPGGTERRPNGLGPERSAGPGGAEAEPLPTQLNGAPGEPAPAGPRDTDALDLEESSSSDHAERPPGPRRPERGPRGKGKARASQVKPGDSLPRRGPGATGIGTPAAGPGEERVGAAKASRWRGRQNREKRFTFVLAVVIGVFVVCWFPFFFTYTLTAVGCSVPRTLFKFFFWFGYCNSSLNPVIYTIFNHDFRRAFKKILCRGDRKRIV
Format: functional, cell-based.

Assay [3] deals with Gamma-aminobutyric acid receptor subunit alpha-1 (Rattus norvegicus, UniProt P62813).
Gamma-aminobutyric acid receptor subunit alpha-1, sequence (P62813 whole entry): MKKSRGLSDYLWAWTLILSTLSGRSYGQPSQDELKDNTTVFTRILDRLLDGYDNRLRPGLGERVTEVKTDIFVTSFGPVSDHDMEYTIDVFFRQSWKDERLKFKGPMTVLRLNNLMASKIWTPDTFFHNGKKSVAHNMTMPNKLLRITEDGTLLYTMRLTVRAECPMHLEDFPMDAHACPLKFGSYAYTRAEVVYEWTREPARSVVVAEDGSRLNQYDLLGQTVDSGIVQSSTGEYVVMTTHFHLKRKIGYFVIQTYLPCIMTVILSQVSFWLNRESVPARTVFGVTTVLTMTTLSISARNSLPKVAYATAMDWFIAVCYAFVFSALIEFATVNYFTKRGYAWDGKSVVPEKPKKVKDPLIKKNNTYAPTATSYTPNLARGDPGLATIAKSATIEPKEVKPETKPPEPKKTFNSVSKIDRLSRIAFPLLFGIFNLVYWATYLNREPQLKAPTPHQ
The target of assay [4] is T3, Alpha-1A adrenergic receptor (Homo sapiens, UniProt P35348).
T3 sequence (P35348 whole entry): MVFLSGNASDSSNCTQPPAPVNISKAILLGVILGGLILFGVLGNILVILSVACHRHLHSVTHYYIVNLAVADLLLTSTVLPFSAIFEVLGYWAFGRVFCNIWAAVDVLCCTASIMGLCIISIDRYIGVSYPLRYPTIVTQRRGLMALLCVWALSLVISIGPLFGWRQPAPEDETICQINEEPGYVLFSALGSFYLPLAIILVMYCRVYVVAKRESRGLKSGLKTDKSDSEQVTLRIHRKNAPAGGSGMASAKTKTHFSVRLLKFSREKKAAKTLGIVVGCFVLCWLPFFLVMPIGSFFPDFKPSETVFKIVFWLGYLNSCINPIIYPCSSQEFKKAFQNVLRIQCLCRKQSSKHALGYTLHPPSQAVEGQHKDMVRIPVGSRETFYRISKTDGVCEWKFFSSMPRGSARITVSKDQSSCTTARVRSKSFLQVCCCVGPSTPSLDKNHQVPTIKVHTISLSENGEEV
It is filed as functional, cell-based.

The target of assay [5] is T3, Alpha-1A adrenergic receptor. It is filed as functional, cell-based. This is another data set of the same source.
The target in assay [6] is Beta-2 adrenergic receptor (Homo sapiens, UniProt P07550).
Beta-2 adrenergic receptor, sequence (P07550 whole entry): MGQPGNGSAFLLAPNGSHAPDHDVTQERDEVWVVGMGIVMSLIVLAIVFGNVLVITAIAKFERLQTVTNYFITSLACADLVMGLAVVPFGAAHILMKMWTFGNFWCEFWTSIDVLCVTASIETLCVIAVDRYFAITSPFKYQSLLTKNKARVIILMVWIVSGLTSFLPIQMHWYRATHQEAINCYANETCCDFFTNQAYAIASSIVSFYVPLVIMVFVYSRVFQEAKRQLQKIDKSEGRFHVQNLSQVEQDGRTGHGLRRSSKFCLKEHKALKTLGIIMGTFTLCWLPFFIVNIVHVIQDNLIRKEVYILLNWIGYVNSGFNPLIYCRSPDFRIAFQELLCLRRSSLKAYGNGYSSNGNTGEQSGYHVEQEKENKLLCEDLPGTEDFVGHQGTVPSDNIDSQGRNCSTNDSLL
For the next assay, the target named is T4, Progesterone receptor (Homo sapiens, UniProt P06401).
T4 sequence (P06401 whole entry): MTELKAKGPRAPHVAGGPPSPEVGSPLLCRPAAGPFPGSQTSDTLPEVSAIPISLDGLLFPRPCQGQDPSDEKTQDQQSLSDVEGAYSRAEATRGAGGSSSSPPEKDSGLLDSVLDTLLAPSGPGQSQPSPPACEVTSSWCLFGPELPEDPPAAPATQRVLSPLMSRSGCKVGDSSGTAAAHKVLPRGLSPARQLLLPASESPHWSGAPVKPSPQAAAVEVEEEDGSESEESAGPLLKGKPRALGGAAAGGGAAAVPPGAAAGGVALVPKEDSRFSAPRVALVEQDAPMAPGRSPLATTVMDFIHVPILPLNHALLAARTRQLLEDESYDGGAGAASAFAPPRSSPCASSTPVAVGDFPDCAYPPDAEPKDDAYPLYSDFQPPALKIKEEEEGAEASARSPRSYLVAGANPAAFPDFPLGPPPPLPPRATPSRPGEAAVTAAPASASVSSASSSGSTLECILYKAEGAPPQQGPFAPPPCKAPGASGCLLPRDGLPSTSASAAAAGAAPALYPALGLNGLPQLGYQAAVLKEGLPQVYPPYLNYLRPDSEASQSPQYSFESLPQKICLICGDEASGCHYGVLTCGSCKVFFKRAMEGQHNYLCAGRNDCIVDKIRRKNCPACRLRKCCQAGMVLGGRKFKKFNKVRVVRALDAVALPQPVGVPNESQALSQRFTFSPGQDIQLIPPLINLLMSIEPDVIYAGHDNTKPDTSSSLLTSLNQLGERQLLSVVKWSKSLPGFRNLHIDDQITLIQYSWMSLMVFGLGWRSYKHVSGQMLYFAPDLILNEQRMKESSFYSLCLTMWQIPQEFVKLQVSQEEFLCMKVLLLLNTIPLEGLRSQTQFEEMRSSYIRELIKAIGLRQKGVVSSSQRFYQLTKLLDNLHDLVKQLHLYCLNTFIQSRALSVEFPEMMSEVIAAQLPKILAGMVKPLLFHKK
It is filed as functional.

In the next assay the target is Mu-type opioid receptor (Homo sapiens, UniProt P35372). The experiment in a line: biochemical. Format: functional.
Mu-type opioid receptor, sequence (P35372 whole entry): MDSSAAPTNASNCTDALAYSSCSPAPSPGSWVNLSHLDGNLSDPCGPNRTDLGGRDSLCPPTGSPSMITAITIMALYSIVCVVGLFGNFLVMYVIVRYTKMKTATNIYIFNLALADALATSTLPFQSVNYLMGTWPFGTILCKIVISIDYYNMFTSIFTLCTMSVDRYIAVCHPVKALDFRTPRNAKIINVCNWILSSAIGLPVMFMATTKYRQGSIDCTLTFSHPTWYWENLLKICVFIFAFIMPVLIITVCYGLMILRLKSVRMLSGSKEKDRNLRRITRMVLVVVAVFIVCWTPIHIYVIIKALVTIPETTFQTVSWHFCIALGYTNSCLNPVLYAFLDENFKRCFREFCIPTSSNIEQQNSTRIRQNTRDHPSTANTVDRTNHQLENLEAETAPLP
The target of assay [7] is T5, Type-1 angiotensin II receptor (Homo sapiens, UniProt P30556).
T5 sequence (P30556 whole entry): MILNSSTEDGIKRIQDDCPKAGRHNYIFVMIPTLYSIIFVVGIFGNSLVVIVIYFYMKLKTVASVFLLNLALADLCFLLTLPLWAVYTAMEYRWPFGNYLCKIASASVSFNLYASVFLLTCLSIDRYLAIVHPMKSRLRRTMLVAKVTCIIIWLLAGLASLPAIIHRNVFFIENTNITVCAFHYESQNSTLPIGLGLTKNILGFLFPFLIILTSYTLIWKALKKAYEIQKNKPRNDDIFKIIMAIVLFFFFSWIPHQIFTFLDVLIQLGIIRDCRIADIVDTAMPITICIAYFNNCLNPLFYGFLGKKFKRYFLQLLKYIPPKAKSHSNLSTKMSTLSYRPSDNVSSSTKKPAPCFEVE
Note: assay procedure not described here.

As to `CC(=O)O[C@H](CC(=O)[O-])C[N+](C)(C)C` [ACETYLCARNITINE], the AC50 in assay [1], in assay [2], in assay [3], in [4], in assay [5] and in [6] was > 30 µM in each case. The AC50 (at Progesterone receptor; at Mu-type opioid receptor; in [7]) was > 30 µM throughout.
For the compound `C=C1/C(=C\C=C2/CCC[C@]3(C)[C@@H]([C@H](C)/C=C/[C@@H](O)C4CC4)CC[C@@H]23)C[C@@H](O)C[C@@H]1O` [CALCIPOTRIENE], the AC50 in assay [1], in [2], in assay [3], in assay [4], in assay [5] and in [6] was > 30 µM throughout. The figures for the AC50 (on Progesterone receptor; on Mu-type opioid receptor; in assay [7]) were 20 µM, > 30 µM and > 30 µM, respectively.
For `CCN(CC)C(=O)Nc1ccc(OCC(O)CNC(C)(C)C)c(C(C)=O)c1` (stereo unspecified) [CELIPROLOL], the AC50 in assay [1] is > 30 µM; in [2], > 30 µM; in [3], > 30 µM; in assay [4], > 30 µM; in [5], > 30 µM; in assay [6], 4.6 µM. Besides, the AC50 (at Progesterone receptor; at Mu-type opioid receptor; in assay [7]) was > 30 µM each time.
Turning to `C=C[C@@]1(C)CC(=O)[C@]2(O)[C@@]3(C)[C@@H](O)CCC(C)(C)[C@@H]3[C@H](O)[C@H](OC(C)=O)[C@@]2(C)O1` [COLFORSIN], the AC50 in assay [1] is > 30 µM; in assay [2], 4.3 µM; in [3], > 30 µM; in assay [4] it was 3.5 µM; in assay [5] it was > 30 µM; in assay [6], > 30 µM. The AC50 (on Progesterone receptor; at Mu-type opioid receptor; in [7]) was > 30 µM in each case.
Turning to `CCCCCCCCCCCCCCCCCCCCCC(=O)Nc1ccn([C@@H]2O[C@H](CO)[C@@H](O)[C@@H]2O)c(=O)n1` [ENOCITABINE], the AC50 in [1], in assay [2], in [3], in assay [4], in assay [5] and in assay [6] was > 30 µM throughout. For the same compound, the half-maximal activity concentration (AC50) (on Progesterone receptor; at Mu-type opioid receptor; in assay [7]) was > 30 µM in each case.
`O=C(O)c1ccccc1Nc1cc(Cl)ccc1C(=O)O` [LOBENZARIT]: the AC50 in assay [1], in [2], in [3], in assay [4], in assay [5] and in assay [6] was > 30 µM throughout. Further, the AC50 (on Progesterone receptor; at Mu-type opioid receptor; in assay [7]) was > 30 µM each time.
Turning to `COc1ccc(-c2noc(CC(=O)O)c2-c2ccc(OC)cc2)cc1` [MOFEZOLAC], the AC50 in [1], in assay [2], in assay [3], in [4], in assay [5] and in assay [6] was > 30 µM throughout. In addition, the AC50 (on Progesterone receptor; on Mu-type opioid receptor; in assay [7]) was > 30 µM each time.
On to `CC1=C(C)C(=O)C(C(CCCCCC(=O)O)c2ccccc2)=C(C)C1=O` (stereo unspecified) [SERATRODAST], for which the AC50 in [1], in assay [2], in assay [3], in [4], in [5] and in [6] was > 30 µM each time. Further, the half-maximal activity concentration (AC50) (on Progesterone receptor; at Mu-type opioid receptor; in assay [7]) was > 30 µM in each case.
With `CCC(COC(=O)c1cc(OC)c(OC)c(OC)c1)(c1ccccc1)N(C)C` (stereo unspecified) [TRIMEBUTINE], the AC50 in [1], in assay [2], in [3], in [4], in [5] and in assay [6] was > 30 µM each time. Also, the AC50 at Progesterone receptor was > 30 µM; at Mu-type opioid receptor, 0.2 µM; in assay [7] it was > 30 µM.

(Values after ChEMBL document CHEMBL5291721, “A preclinical secondary pharmacology resource illuminates target-adverse drug reaction associations of marketed drugs” (Nat Commun, 2023).)
